Measured values as given in patent US20080219972A1, “Prostatic Acid Phosphatase (Pap) Materials and Methods of Use Thereof in the Prophylactic and Therapeutic Treatment of Prostate Cancer” (UNIVERSITY OF MARYLAND, BALTIMORE, priority 2005, published 2008).

System: CD4 T-cells from PBMC of HLA-DRB1*1501-positive GP patients and normal male donors
Experiment: Human CD4 T-cell line responses to PAP polypeptides (IFN-γ ELISPOT, proliferation assay, IFN-γ ELISA)
Assay type: cell-based
Protocol: The PAP polypeptides identified above were tested in human cultures. CD4 T-cell lines, which were specific for polypeptide 15 or polypeptide 19, were established from PBMC of HLA-DRB1*1501-positive GP patients and normal male donors by repeated stimulations with the polypeptide 19. After two rounds of in vitro stimulation, T-cells were plated at 2×10^4 cells/well in 96-well, round-bottomed plates, and stimulated by irradiated autologous PBMC in the presence/absence of polypeptide 19 or control polypeptide 15.
No polypeptide-specific responses were detected in primary PBMC cultures by IFN-γ ELISPOT, proliferation assay, or IFN-γ ELISA. When CD4 T-cells were stimulated with polypeptide […], cells from three of five GP patients and three of four normal male donors responded to the specific peptide in secondary cultures.
The HLA restriction of the cell line was confirmed using an immortalized B-cell line derived from a patient with type II Bare Lymphocyte Syndrome (BLC cells) and engineered to express HLA-DRB1*1501.
A CD4 T-cell line, which was developed from patient Pr131 by repeated stimulation with polypeptide 19, recognized human and mouse homolog polypeptides.

ESEEFLKRLHPYKSFLD TLS (ESEEFLKRLHPYKSFLDTLS; listed as Mus musculus) [mouse homolog, mouse polypeptide corresponding to human polypeptide 19, six amino acid substitutions]
avidity relative to human polypeptide 19 (inferred from concentration range of response): higher avidity
recognition by Pr131 CD4 T-cell line raised with polypeptide 19 (line developed by repeated stimulation with polypeptide 19): recognized
response of Pr131 CD4 T-cell line stimulated with irradiated autologous PBMC (seen in a broader range of concentration): strong response
